Test results as given in ChEMBL document CHEMBL3046669, “Insecticide resistance of the oriental fruit fly, Bactrocera dorsalis (Hendel) (Diptera: Tephritidae), in mainland China” (2011).
≈ marks a conversion by molar mass, not a printed value.

What was measured:
Format in all cases: functional
Bactrocera dorsalis [1] = assay: Insecticidal activity against adult Bactrocera dorsalis QY07 assessed as mortality after 24 hr; conditions: QY07, 24 h
Bactrocera dorsalis [2] = assay: Insecticidal activity against adult Bactrocera dorsalis HY07 assessed as mortality after 24 hr; conditions: HY07, 24 h
Bactrocera dorsalis [3] = assay: Insecticidal activity against adult Bactrocera dorsalis HK07 assessed as mortality after 24 hr; conditions: HK07, 24 h
Bactrocera dorsalis [4] = assay: Insecticidal activity against adult Bactrocera dorsalis YJ07 assessed as mortality after 24 hr; conditions: YJ07, 24 h
Bactrocera dorsalis [5] = assay: Insecticidal activity against adult Bactrocera dorsalis NN07 assessed as mortality after 24 hr; conditions: NN07, 24 h
Bactrocera dorsalis [6] = assay: Insecticidal activity against adult Bactrocera dorsalis CS07 assessed as mortality after 24 hr; conditions: CS07, 24 h
Bactrocera dorsalis [7] = assay: Insecticidal activity against adult Bactrocera dorsalis FZ07 assessed as mortality after 24 hr; conditions: FZ07, 24 h
Bactrocera dorsalis [8] = assay: Insecticidal activity against adult Bactrocera dorsalis WX07 assessed as mortality after 24 hr; conditions: WX07, 24 h
Bactrocera dorsalis [9] = assay: Insecticidal activity against adult Bactrocera dorsalis assessed as mortality after 24 hr
Bactrocera dorsalis [10] = assay: Resistance ratio of LC50 for adult Bactrocera dorsalis C-R-48 to LC50 for adult Bactrocera dorsalis
Bactrocera dorsalis [11] = assay: Resistance ratio of LC50 for adult Bactrocera dorsalis C-R-45 to LC50 for adult Bactrocera dorsalis
Bactrocera dorsalis [12] = assay: Insecticidal activity against adult Bactrocera dorsalis C-R-48 assessed as mortality
Bactrocera dorsalis [13] = assay: Insecticidal activity against adult Bactrocera dorsalis C-R-45 assessed as mortality
Bactrocera dorsalis [14] = assay: Resistance ratio of LC50 for adult Bactrocera dorsalis HZ08 to LC50 for adult Bactrocera dorsalis after 24 hr
Bactrocera dorsalis [15] = assay: Resistance ratio of LC50 for adult Bactrocera dorsalis CH08 to LC50 for adult Bactrocera dorsalis after 24 hr
Bactrocera dorsalis [16] = assay: Resistance ratio of LC50 for adult Bactrocera dorsalis GZ08 to LC50 for adult Bactrocera dorsalis after 24 hr
Bactrocera dorsalis [17] = assay: Resistance ratio of LC50 for adult Bactrocera dorsalis QY08 to LC50 for adult Bactrocera dorsalis after 24 hr
Bactrocera dorsalis [18] = assay: Resistance ratio of LC50 for adult Bactrocera dorsalis MM08 to LC50 for adult Bactrocera dorsalis after 24 hr
Bactrocera dorsalis [19] = assay: Resistance ratio of LC50 for adult Bactrocera dorsalis HY08 to LC50 for adult Bactrocera dorsalis after 24 hr
Bactrocera dorsalis [20] = assay: Resistance ratio of LC50 for adult Bactrocera dorsalis NN08 to LC50 for adult Bactrocera dorsalis after 24 hr
Bactrocera dorsalis [21] = assay: Resistance ratio of LC50 for adult Bactrocera dorsalis HK08 to LC50 for adult Bactrocera dorsalis after 24 hr
Bactrocera dorsalis [22] = assay: Resistance ratio of LC50 for adult Bactrocera dorsalis FZ08 to LC50 for adult Bactrocera dorsalis after 24 hr
Bactrocera dorsalis [23] = assay: Resistance ratio of LC50 for adult Bactrocera dorsalis YJ08 to LC50 for adult Bactrocera dorsalis after 24 hr
Bactrocera dorsalis [24] = assay: Resistance ratio of LC50 for adult Bactrocera dorsalis WX08 to LC50 for adult Bactrocera dorsalis after 24 hr
Bactrocera dorsalis [25] = assay: Resistance ratio of LC50 for adult Bactrocera dorsalis NN07 to LC50 for adult Bactrocera dorsalis after 24 hr
Bactrocera dorsalis [26] = assay: Resistance ratio of LC50 for adult Bactrocera dorsalis HK07 to LC50 for adult Bactrocera dorsalis after 24 hr
Bactrocera dorsalis [27] = assay: Resistance ratio of LC50 for adult Bactrocera dorsalis FZ07 to LC50 for adult Bactrocera dorsalis after 24 hr
Bactrocera dorsalis [28] = assay: Resistance ratio of LC50 for adult Bactrocera dorsalis YJ07 to LC50 for adult Bactrocera dorsalis after 24 hr
Bactrocera dorsalis [29] = assay: Resistance ratio of LC50 for adult Bactrocera dorsalis WX07 to LC50 for adult Bactrocera dorsalis after 24 hr
Bactrocera dorsalis [30] = assay: Resistance ratio of LC50 for adult Bactrocera dorsalis CS07 to LC50 for adult Bactrocera dorsalis after 24 hr
Bactrocera dorsalis [31] = assay: Resistance ratio of LC50 for adult Bactrocera dorsalis CS08 to LC50 for adult Bactrocera dorsalis after 24 hr
Bactrocera dorsalis [32] = assay: Resistance ratio of LC50 for adult Bactrocera dorsalis HZ07 to LC50 for adult Bactrocera dorsalis after 24 hr
Bactrocera dorsalis [33] = assay: Resistance ratio of LC50 for adult Bactrocera dorsalis ZJ07 to LC50 for adult Bactrocera dorsalis after 24 hr
Bactrocera dorsalis [34] = assay: Resistance ratio of LC50 for adult Bactrocera dorsalis CH07 to LC50 for adult Bactrocera dorsalis after 24 hr
Bactrocera dorsalis [35] = assay: Resistance ratio of LC50 for adult Bactrocera dorsalis GZ07 to LC50 for adult Bactrocera dorsalis after 24 hr
Bactrocera dorsalis [36] = assay: Resistance ratio of LC50 for adult Bactrocera dorsalis MM07 to LC50 for adult Bactrocera dorsalis after 24 hr
Bactrocera dorsalis [37] = assay: Resistance ratio of LC50 for adult Bactrocera dorsalis HY07 to LC50 for adult Bactrocera dorsalis after 24 hr
Bactrocera dorsalis [38] = assay: Resistance ratio of LC50 for adult Bactrocera dorsalis QY07 to LC50 for adult Bactrocera dorsalis after 24 hr
Bactrocera dorsalis [39] = assay: Insecticidal activity against adult Bactrocera dorsalis GZ08 assessed as mortality after 24 hr; conditions: GZ08, 24 h
Bactrocera dorsalis [40] = assay: Insecticidal activity against adult Bactrocera dorsalis HZ08 assessed as mortality after 24 hr; conditions: HZ08, 24 h
Bactrocera dorsalis [41] = assay: Insecticidal activity against adult Bactrocera dorsalis CH08 assessed as mortality after 24 hr; conditions: CH08, 24 h
Bactrocera dorsalis [42] = assay: Insecticidal activity against adult Bactrocera dorsalis QY08 assessed as mortality after 24 hr; conditions: QY08, 24 h
Bactrocera dorsalis [43] = assay: Insecticidal activity against adult Bactrocera dorsalis MM08 assessed as mortality after 24 hr; conditions: MM08, 24 h
Bactrocera dorsalis [44] = assay: Insecticidal activity against adult Bactrocera dorsalis HK08 assessed as mortality after 24 hr; conditions: HK08, 24 h
Bactrocera dorsalis [45] = assay: Insecticidal activity against adult Bactrocera dorsalis HY08 assessed as mortality after 24 hr; conditions: HY08, 24 h
Bactrocera dorsalis [46] = assay: Insecticidal activity against adult Bactrocera dorsalis YJ08 assessed as mortality after 24 hr; conditions: YJ08, 24 h
Bactrocera dorsalis [47] = assay: Insecticidal activity against adult Bactrocera dorsalis NN08 assessed as mortality after 24 hr; conditions: NN08, 24 h
Bactrocera dorsalis [48] = assay: Insecticidal activity against adult Bactrocera dorsalis FZ08 assessed as mortality after 24 hr; conditions: FZ08, 24 h
Bactrocera dorsalis [49] = assay: Insecticidal activity against adult Bactrocera dorsalis WX08 assessed as mortality after 24 hr; conditions: WX08, 24 h
Bactrocera dorsalis [50] = assay: Insecticidal activity against adult Bactrocera dorsalis CS08 assessed as mortality after 24 hr; conditions: CS08, 24 h
Bactrocera dorsalis [51] = assay: Insecticidal activity against adult Bactrocera dorsalis HZ07 assessed as mortality after 24 hr; conditions: HZ07, 24 h
Bactrocera dorsalis [52] = assay: Insecticidal activity against adult Bactrocera dorsalis ZJ07 assessed as mortality after 24 hr; conditions: ZJ07, 24 h
Bactrocera dorsalis [53] = assay: Insecticidal activity against adult Bactrocera dorsalis GZ07 assessed as mortality after 24 hr; conditions: GZ07, 24 h
Bactrocera dorsalis [54] = assay: Insecticidal activity against adult Bactrocera dorsalis MM07 assessed as mortality after 24 hr; conditions: MM07, 24 h
Bactrocera dorsalis [55] = assay: Insecticidal activity against adult Bactrocera dorsalis CH07 assessed as mortality after 24 hr; conditions: CH07, 24 h

CC1(C)[C@H](C=C(Cl)Cl)[C@H]1C(=O)O[C@@H](C#N)c1cccc(Oc2ccccc2)c1 [BETA-CYPERMETHRIN]
LC50 (Bactrocera dorsalis [1]): 15.1 µg/mL (≈ 36.4 µM)
LC50 (Bactrocera dorsalis [2]): 32.7 µg/mL (≈ 78.5 µM)
LC50 (Bactrocera dorsalis [3]): 15.5 µg/mL (≈ 37.2 µM)
LC50 (Bactrocera dorsalis [4]): 2.74 µg/mL (≈ 6.58 µM)
LC50 (Bactrocera dorsalis [5]): 7.95 µg/mL (≈ 19.1 µM)
LC50 (Bactrocera dorsalis [6]): 15.1 µg/mL (≈ 36.2 µM)
LC50 (Bactrocera dorsalis [7]): 13.3 µg/mL (≈ 31.9 µM)
LC50 (Bactrocera dorsalis [8]): 23.9 µg/mL (≈ 57.3 µM)
LC90 (Bactrocera dorsalis [9]): 3.6 µg/mL (≈ 8.65 µM)
LC50 (Bactrocera dorsalis [9]; Bactrocera dorsalis, 24 h): 2.49 µg/mL (≈ 5.98 µM)
RatioLC50 (Bactrocera dorsalis [10]): 333.42
RatioLC50 (Bactrocera dorsalis [11]): 329.3
LC90 (Bactrocera dorsalis [12]): 3959.5 µg/mL (≈ 9510 µM)
LC50 (Bactrocera dorsalis [12]; Bactrocera dorsalis, C-R-48): 830 µg/mL (≈ 1990 µM)
LC90 (Bactrocera dorsalis [13]): 7082.07 µg/mL (≈ 17000 µM)
LC50 (Bactrocera dorsalis [13]; Bactrocera dorsalis, C-R-45): 820 µg/mL (≈ 1970 µM)
RatioLC50 (Bactrocera dorsalis [14]): 28.39
RatioLC50 (Bactrocera dorsalis [15]): 24.35
RatioLC50 (Bactrocera dorsalis [16]): 9.71
RatioLC50 (Bactrocera dorsalis [17]): 4.91
RatioLC50 (Bactrocera dorsalis [18]): 13.72
RatioLC50 (Bactrocera dorsalis [19]): 17.06
RatioLC50 (Bactrocera dorsalis [20]): 5.02
RatioLC50 (Bactrocera dorsalis [21]): 12.17
RatioLC50 (Bactrocera dorsalis [22]): 8.17
RatioLC50 (Bactrocera dorsalis [23]): 4.23
RatioLC50 (Bactrocera dorsalis [24]): 44.03
RatioLC50 (Bactrocera dorsalis [25]): 3.19
RatioLC50 (Bactrocera dorsalis [26]): 6.23
RatioLC50 (Bactrocera dorsalis [27]): 5.34
RatioLC50 (Bactrocera dorsalis [28]): 1.1
RatioLC50 (Bactrocera dorsalis [29]): 9.59
RatioLC50 (Bactrocera dorsalis [30]): 6.06
RatioLC50 (Bactrocera dorsalis [31]): 5.93
RatioLC50 (Bactrocera dorsalis [32]): 4.57
RatioLC50 (Bactrocera dorsalis [33]): 3.01
RatioLC50 (Bactrocera dorsalis [34]): 25.74
RatioLC50 (Bactrocera dorsalis [35]): 18.6
RatioLC50 (Bactrocera dorsalis [36]): 17
RatioLC50 (Bactrocera dorsalis [37]): 13.14
RatioLC50 (Bactrocera dorsalis [38]): 6.08
LC50 (Bactrocera dorsalis [39]): 24.2 µg/mL (≈ 58.1 µM)
LC50 (Bactrocera dorsalis [40]): 70.7 µg/mL (≈ 170 µM)
LC50 (Bactrocera dorsalis [41]): 60.6 µg/mL (≈ 146 µM)
LC50 (Bactrocera dorsalis [42]): 12.2 µg/mL (≈ 29.4 µM)
LC50 (Bactrocera dorsalis [43]): 34.2 µg/mL (≈ 82.1 µM)
LC50 (Bactrocera dorsalis [44]): 30.3 µg/mL (≈ 72.8 µM)
LC50 (Bactrocera dorsalis [45]): 42.5 µg/mL (≈ 102 µM)
LC50 (Bactrocera dorsalis [46]): 10.5 µg/mL (≈ 25.3 µM)
LC50 (Bactrocera dorsalis [47]): 12.5 µg/mL (≈ 30 µM)
LC50 (Bactrocera dorsalis [48]): 20.4 µg/mL (≈ 48.9 µM)
LC50 (Bactrocera dorsalis [49]): 110 µg/mL (≈ 263 µM)
LC50 (Bactrocera dorsalis [50]): 14.8 µg/mL (≈ 35.4 µM)
LC50 (Bactrocera dorsalis [51]): 11.4 µg/mL (≈ 27.3 µM)
LC50 (Bactrocera dorsalis [52]): 7.49 µg/mL (≈ 18 µM)
LC50 (Bactrocera dorsalis [53]): 46.3 µg/mL (≈ 111 µM)
LC50 (Bactrocera dorsalis [54]): 42.3 µg/mL (≈ 102 µM)
LC50 (Bactrocera dorsalis [55]): 64.1 µg/mL (≈ 154 µM)
